According to PMC2666621 (Current drug metabolism, 2009):

Columns and labels:
[1] = target: T1, CHLαGcT (cholesterol α-glucosyltransferase; HP0421) (Helicobacter pylori, UniProt O25175); assay: product inhibition, Lineweaver-Burk; format: biochemical; settings: varied UDP-Glc; competitive with UDP-Glc
[2] = target: T1, CHLαGcT (cholesterol α-glucosyltransferase; HP0421); assay: glucosyltransferase inhibition assay; format: biochemical; settings: UDP-Glc 3.6 μM, cholesterol 400 μM (so in the source); cited from earlier work

SMILES | product inhibition, Lineweaver-Burk [1] | IC50 [2] [µM]
O=c1ccn([C@@H]2O[C@H](COP(=O)(O)OP(=O)(O)O)[C@@H](O)[C@H]2O)c(=O)[nH]1 [UDP] | inhibition profile of UDP in the presence of UDP-Glc intersected at the Y-axis, indicating competitive inhibition | 
CCCCCCCCO[C@H]1O[C@H](CO[C@@H]2O[C@H](CO)[C@@H](O[C@@H]3O[C@H](CO)[C@H](O[C@H]4O[C@H](CO)[C@@H](O)[C@H](O)[C@H]4NC(C)=O)[C@H](O)[C@H]3O)[C@H](O)[C@H]2NC(C)=O)[C@H](O)[C@H](O[C@@H]2O[C@H](CO)[C@H](O)[C@H](O)[C@H]2O)[C@H]1NC(C)=O [GlcNAcα1→4Galβ1→4GlcNAcβ1→6(Galβ1→3)GalNAcα1→octyl] |  | 470
CCCCCCCCO[C@H]1O[C@H](CO)[C@H](O)[C@H](O[C@@H]2O[C@H](CO)[C@H](O)[C@H](O[C@]3(C(=O)O)C[C@H](O)[C@@H](NC(C)=O)[C@H]([C@H](O)[C@H](O)CO)O3)[C@H]2O)[C@H]1NC(C)=O [NeuAcα2→3Galβ1→3GalNAcα1→octyl] |  | 1090
CC(=O)N[C@H]1[C@@H](Oc2ccc([N+](=O)[O-])cc2)O[C@H](CO)[C@H](O)[C@@H]1O[C@@H]1O[C@H](CO)[C@H](O)[C@H](O)[C@H]1O [Galβ1→3GalNAcα1→p-nitrophenol] |  | 7490
CC(=O)N[C@H]1[C@H](OC[C@H]2O[C@H](Oc3ccc([N+](=O)[O-])cc3)[C@H](NC(C)=O)[C@@H](O[C@@H]3O[C@H](CO)[C@H](O)[C@H](O)[C@H]3O)[C@H]2O)O[C@H](CO)[C@@H](O)[C@@H]1O [GlcNAcβ1→6(Galβ1→3)GalNAcα1→p-nitrophenol] |  | 2210
